Test results from patent publication US10968203B2, “Pyrimidinyl-pyridyloxy-naphthyl compounds and methods of treating IRE1-related diseases and disorders” (Genentech, Inc., priority 2017, dated 2021).
Counter-ions that a name gives are not always drawn.

Experiments:
cells = settings: high levels of 4μ8C; cited from earlier work
XBP1s-luc 293 LUC = test: cellular PD assay, XBP1s-LUC reporter (Example 903); type: cell-based; settings: Table 2; read-out: XBP1s-luc 293 LUC (IC50)
Outline: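 Cellular IRE1α pathway activity was quantified from the luciferase signal of an XBP1-Luc reporter, where the luciferase fusion is in frame and expressed only from the spliced XBP1 transcript.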

SMILES | toxicity in cells (cells) | IC50 (XBP1s-luc 293 LUC) [nM]
Cc1cc(=O)oc2c(C=O)c(O)ccc12 [Example 4μ8C] | no measurable toxicity | –
Cc1ccc2c(NS(=O)(=O)CC3(F)CC3)c(F)ccc2c1Oc1ncccc1-c1ccnc(N[C@@H]2CNC[C@H](C)C2)n1 [Example 487, N-(2-Fluoro-6-methyl-5-((3-(2-(((3S,5R)-5-methylpiperidin-3-yl)amino)pyrimidin-4-yl)pyridin-2-yl)oxy)naphthalen-1-yl)-1-(1-fluorocyclopropyl)methanesulfonamide hydrochloride] | – | 9
Cc1ccc2c(NS(=O)(=O)Cc3ccccn3)c(F)ccc2c1Oc1ncccc1-c1ccnc(N[C@H]2CCCNC2)n1 [Example 494, (S)—N-(2-Fluoro-6-methyl-5-((3-(2-(piperidin-3-ylamino)pyrimidin-4-yl)pyridin-2-yl)oxy)naphthalen-1-yl)-1-(pyridin-2-yl)methanesulfonamide hydrochloride] | – | 12.5
